From article PMC9415646, “Improving Aqueous Solubility and In Vitro Pharmacokinetic Properties of the 3-Nitroimidazo[1,2-a]pyridine Antileishmanial Pharmacophore” (Pharmaceuticals, 2022) come the findings set out here.

Series [1] deals with L. donovani promastigotes. Kind of series: Antileishmanial activity against L. donovani promastigotes (MTT assay). Format: cell-based. The settings on record: Leishmania donovani; promastigotes, 72 h, MTT; read-out: EC50 L. donovani Pro. On the procedure:
The Leishmania species used in this study were L. donovani (MHOM/IN/00/DEVI) purchased from CNR Leishmania (Montpellier, France). Leishmania promastigote forms were grown in Schneider’s Drosophila medium (Life Technologies, Saint-Aubin, France) supplemented with 100 U/mL penicillin, 100 µg/mL streptomycin, 2 mM L-glutamine and 20% FCS (Life Technologies, Saint-Aubin, France) at 27 °C. The in vitro evaluation of the tested compound’s antileishmanial activity on promastigote forms was carried out by MTT assay according to the Mosmann protocol with some modifications. Briefly, promastigotes in log-phase were incubated at an average density of 10^6 parasites/mL in sterile 96-well plates with various concentrations of compound dissolved in DMSO (final concentration less than 0.5% v/v), in duplicate. Appropriate controls treated with DMSO, Miltefosine, Amphotericin B, Fexinidazole, and Fexinidazole sulfone (reference drugs purchased from Sigma-Aldrich, Saint-Louis, Missouri, USA) were added to each set of experiments. After a 72 h incubation period at 27 °C, parasitic metabolic activity was determined. Each plate-well was then microscope-analyzed to detect any precipitate formation. 20 µL of MTT (3-(4,5-dimethylthiazol-2-yl)-2,5-diphenyltetrazolium bromide) (Sigma-Aldrich, Saint-Louis, Missouri, USA) solution (5 mg/mL in PBS) were added to each well and incubated for 4 h at 27 °C. The enzyme reaction was then stopped by addition of 100 µL of 50% isopropanol–10% sodium dodecyl sulfate. Plates were shaken vigorously at 300 rpm for 10 min. The absorbance was measured at 570 nm in a BIO-TEK Elx808 (Biotek, Colmar, France) absorbance microplate reader. […] EC50 values were calculated by non-linear regression analysis processed dose-response curves, using TableCurve 2D V5.0 software (Systat Software Inc. (Palo Alto, CA, USA)). EC50 values represent the mean value calculated from at least three separate experiments.

For series [2], the system named is L. infantum axenic amastigotes. Kind of series: Antileishmanial activity on L. infantum axenic amastigotes (luciferase assay). The settings on record: Leishmania infantum, 48 h, read-out: EC50 L. infantum Axenic Ama. Format: cell-based. Here is the method: L. infantum promastigotes were harvested in logarithmic phase of growth by centrifugation at 900× g for 10 min. The supernatant was removed carefully and was replaced by the same volume of RPMI 1640 complete medium at pH 5.4 and incubated for 24 h at 24 °C. The acidified promastigotes were then incubated for 24 h at 37 °C in a ventilated flask to transform them into axenic amastigotes. The amastigote stage was checked both by electron microscopy (short flagellum with small bulbous tip extending beyond a spherical cell body) and RT-PCR to confirm the overexpression of ATG8 and amastin genes in amastigotes, relative to promastigotes. The effects of the tested compounds on the growth of L. infantum axenic amastigotes were assessed as follows. L. infantum amastigotes were incubated at a density of 2 × 10^6 parasites/mL in sterile 96-well plates with various concentrations of compounds dissolved in DMSO (final concentration less than 0.5% v/v), in duplicate. Appropriate controls treated with DMSO, amphotericin B, miltefosine, fexinidazole and fexinidazole sulfone were added to each set of experiments. After a 48 h incubation period at 37 °C, each plate-well was then microscopically examined to detect any precipitate formation.
• Luciferase activity and determination of EC50 were performed as above.

Series [3] is described as follows: Redox potential of the nitro group by cyclic voltammetry. Format: physicochemical. The settings on record: cyclic voltammetry in DMSO, corrected versus NHE. Here is the method:
Voltammetric measurements were carried out with a potentiostat Autolab PGSTAT100 (ECO Chemie, Utrecht, The Netherlands) controlled by GPES 4.09 software (ECO Chemie, Utrecht, The Netherlands). Experiments were performed at room temperature in a homemade airtight three–electrode cell connected to a vacuum/argon line. The reference electrode consisted of a saturated calomel electrode (SCE) separated from the solution by a bridge compartment. The counter electrode was a platinum wire of 1 cm^2 apparent surface. The working electrode was a GC microdisk (1.0 mm in diameter–Bio-logic SAS). The supporting electrolyte (nBu4N)[PF6] (Fluka, 99% puriss electrochemical grade) and the solvent DMSO (Sigma-Aldrich puriss p.a. dried <0.02% water) were used as received and simply degassed under argon. The solutions used during electrochemical analyses were typically 10^−3 M in compound and 0.1 M in supporting electrolyte. Before each measurement, the solutions were degassed by bubbling Ar, and the working electrode was polished with a polishing machine (Presi P230, Eybens, France). Under the experimental conditions adopted in this work, the half-wave potential (E1/2) of the ferrocene Fc+/Fc couple in DMSO was E1/2 = 0.45 V vs. SCE. Experimental peak potentials were measured versus SCE and converted to NHE by adding 0.241 V.

The nature of series [4]: Mouse microsomal stability. Format: in vitro ADME. To be noted: female, CD-1, pH 7.4; mouse liver microsomes; read-out: Mouse Microsomal Stability T1/2. On the procedure: The tested product and propranolol, used as reference, were incubated in duplicate (reaction volume of 0.5 mL) with female mouse microsomes (CD-1, 20 mg/mL, BD Gentest™) at 37 °C in a 50 mM phosphate buffer, pH 7.4, in the presence of MgCl2 (5 mM), NADP (1 mM), glucose-6-phosphate dehydrogenase (0.4 U/mL) and glucose-6-phosphate (5 mM). […] After centrifugation at 10,000× g, 10 min, 4 °C, the supernatants were maintained at 4 °C for immediate analysis or placed at -80 °C for later analysis. Controls (t0 and tfinal) in triplicate were prepared by incubation of the internal standard with microsomes denatured by acetonitrile. […] The mobile phases were (A) ammonium acetate 10 mM and (B) acetonitrile with 0.1% formic acid. The injection volume was 1 µL and the flow rate 600 µL/min. […] Each compound was quantified by converting the average of the ratios of the analyte/internal standard surfaces to the percentage of product consumed. The ratio of the control at t0 corresponded to 0% of product consumed. The half-life (T1/2) of each compound in the presence of microsomes was calculated according to the equation: t1/2=ln(2)/k , where k is the first-order degradation constant (the slope of the logarithm of compound concentration versus incubation time). The intrinsic clearance in vitro (Clint expressed in μL/min/mg) is calculated according to the equation: Clint=dose/AUC∞/[microsomes] where “dose” is the initial concentration of product in the sample, AUC∞ is the area under the concentration-time curve extrapolated to infinity and [microsomes] is the microsome concentration expressed in mg/µL.

Consider `O=[N+]([O-])c1c(CS(=O)(=O)c2ccc(OC(F)(F)F)cc2)nc2c(Sc3ccc(Cl)cc3)cc(Cl)cn12` [Compound 3e, 6-Chloro-8-[(4-Chlorophenyl)thio]-3-Nitro-2-[(4-Trifluoromethoxyphenylsulfonyl)methyl]imidazo[1,2-a]pyridine], for which the melting point was found to be 173 °C. Moreover, the EC50 in series [1] worked out at 2600 ± 200 nM. Moreover, the EC50 in series [2] turned out to be 800 ± 200 nM. In series [3], the “E0 (redox potential of the nitro group)” value is given as −0.66 V.

With `O=[N+]([O-])c1c(CS(=O)(=O)c2ccc(OC(F)(F)F)cc2)nc2c(Br)cc(Cl)cn12` [Compound 2f, 8-Bromo-6-Chloro-3-Nitro-2-[(4-Trifluoromethoxyphenylsulfonyl)methyl]imidazo[1,2-a] pyridine], the melting point was found to be 178 °C. In addition, the EC50 in series [1] was 4400 ± 100 nM. Further, the EC50 in series [2] was 2700 ± 400 nM. In addition, the “E0 (redox potential of the nitro group)” value in series [3] was −0.62 V.

As to `O=[N+]([O-])c1c(CS(=O)(=O)c2ccccc2)nc2c(Br)cc(Cl)cn12` [Hit A, 8-Bromo-6-chloro-3-nitro-2-(phenylsulfonylmethyl)imidazo[1,2-a]pyridine, reference compound], the EC50 in series [1] was 5300 ± 1100 nM; in series [2] it was 16400 ± 1300 nM. Moreover, the “E0 (redox potential of the nitro group)” value in series [3] is −0.65 V. Further, the half-life in series [4] amounted to 11 min.

`COc1ccc(S(=O)(=O)Cc2nc3c(Br)cc(Cl)cn3c2[N+](=O)[O-])cc1` [Compound 2g, 8-Bromo-6-Chloro-2-[(4-Methoxyphenylsulfonyl)methyl]-3-Nitroimidazo[1,2-a]pyridine]: the melting point was 226 °C. Besides, the EC50 in series [1] was found to be 2800 ± 900 nM. The EC50 in series [2] was 2300 ± 300 nM. Further, the “E0 (redox potential of the nitro group)” value in series [3] was −0.64 V.

`O=[N+]([O-])c1c(CS(=O)(=O)C2CC2)nc2c(Sc3ccc(Cl)cc3)cc(Cl)cn12` [Compound 3h, 6-Chloro-8-[(4-Chlorophenyl)thio]-2-[(cyclopropylsulfonyl)methyl]-3-Nitroimidazo[1,2-a]pyridine] showed a melting point of 196 °C. The EC50 in series [1] was 2200 ± 300 nM. Also, the EC50 in series [2] came to 2400 ± 100 nM. The “E0 (redox potential of the nitro group)” value in series [3] was −0.65 V.

Consider `O=[N+]([O-])c1c(CS(=O)(=O)c2ccc(Cl)cc2)nc2c(Sc3ccc(Cl)cc3)cc(Cl)cn12` [Compound 3b, 6-Chloro-2-[(4-Chlorophenylsulfonyl)methyl]-8-[(4-Chlorophenyl)thio]-3-Nitroimidazo[1,2-a]pyridine], for which the melting point came out at 221 °C. For the same compound, in series [1], the EC50 came out at 1400 ± 100 nM. For the same compound, the EC50 in series [2] was 1000 ± 100 nM. The “E0 (redox potential of the nitro group)” value in series [3] is −0.68 V. The half-life in series [4] is 4.5 min.

Turning to `O=[N+]([O-])c1c(CS(=O)(=O)c2ccccc2)nc2c(Sc3ccc(Cl)cc3)cc(Cl)cn12` [Hit B, reference compound], the concentration giving a half-maximal response (EC50) came out at 1000 ± 300 nM in series [1] and 1700 ± 300 nM in series [2]. Further, the “E0 (redox potential of the nitro group)” value in series [3] is on record as −0.63 V. Also, in series [4], the half-life is 3 min.

Regarding `CSc1ccc(OCc2ncc([N+](=O)[O-])n2C)cc1` [Fexinidazole, reference compound], the values for the EC50 in series [1] and in series [2] were 1200 ± 200 nM and 7800 ± 2300 nM, respectively. The “E0 (redox potential of the nitro group)” value in series [3] is −0.83 V.

`O=[N+]([O-])c1c(CS(=O)(=O)c2ccc(O)cc2)nc2c(Sc3ccc(Cl)cc3)cc(Cl)cn12` [Compound 3a, 4-{[(6-Chloro-8-[(4-Chlorophenyl)thio]-3-Nitroimidazo[1,2-a]pyridin-2-yl)methyl]sulfonyl}phenol]: the melting point is 241 °C. For the same compound, in series [1], the EC50 worked out at 800 ± 200 nM. For the same compound, the EC50 in series [2] came out at 1400 ± 300 nM.

`COc1ccc(S(=O)(=O)Cc2nc3c(Sc4ccc(Cl)cc4)cc(Cl)cn3c2[N+](=O)[O-])cc1` [Compound 3f, 6-Chloro-8-[(4-Chlorophenyl)thio]-2-[(4-Methoxyphenylsulfonyl)methyl]-3-Nitroimidazo[1,2-a]pyridine]: the melting point is 214 °C. Also, the EC50 in series [1] was found to be 1200 ± 100 nM. In addition, the EC50 in series [2] amounted to 500 ± 100 nM. Besides, the “E0 (redox potential of the nitro group)” value in series [3] is given as −0.66 V.

Consider `O=[N+]([O-])c1c(CS(=O)(=O)c2ccc(F)cc2)nc2c(Sc3ccc(Cl)cc3)cc(Cl)cn12` [Compound 3c, 6-Chloro-8-[(4-Chlorophenyl)thio]-2-[(4-Fluorophenylsulfonyl)methyl]-3-Nitroimidazo[1,2-a]pyridine], for which the melting point is 197 °C. Besides, the EC50 in series [1] was determined as 900 ± 100 nM. Moreover, in series [2], the EC50 came to 200 ± 100 nM. Also, the “E0 (redox potential of the nitro group)” value in series [3] is listed as −0.61 V. The half-life in series [4] turned out to be 5.7 min.

With `O=[N+]([O-])c1c(CS(=O)(=O)c2ccc(C(F)(F)F)cc2)nc2c(Sc3ccc(Cl)cc3)cc(Cl)cn12` [Compound 3d, 6-Chloro-8-[(4-Chlorophenyl)thio]-3-Nitro-2-[(4-Trifluoromethylphenylsulfonyl)methyl]imidazo[1,2-a]pyridine], the melting point was 222 °C. Further, the EC50 in series [1] turned out to be 1800 ± 200 nM. Moreover, the EC50 in series [2] worked out at 800 ± 100 nM. For the same compound, in series [3], the “E0 (redox potential of the nitro group)” value is −0.56 V.

The compound `O=[N+]([O-])c1c(CS(=O)(=O)CCC(F)(F)F)nc2c(S(=O)(=O)c3ccc(Cl)cc3)cc(Cl)cn12` [Compound 6b, 6-Chloro-8-[(4-Chlorophenyl)sulfonyl]-3-Nitro-2-[(3,3,3-Trifluoropropylsulfonyl)methyl] imidazo[1,2-a]pyridine] had a melting point of 233 °C. The EC50 in series [1] came out at 1300 ± 200 nM. Moreover, the EC50 in series [2] was found to be 2300 ± 300 nM. Also, the half-life in series [4] was found to be 7.9 min.
